Assay results as given in ChEMBL document CHEMBL1149774, “Synthesis of N-(5,7-diamino-3-phenyl-quinoxalin-2-yl)-3,4,5-substituted anilines and N-[4[(5,7-diamino-3-phenylquinoxalin-2-yl)amino]benzoyl]-l-glutamic acid diethyl ester: evaluation of in vitro anti-cancer and anti-folate activities” (Eur J Med Chem, 2008).
The source made the active and inactive calls. The rule behind the calls is not given here.

How the values were obtained:
NCI-H226 = assay: Growth inhibition of human NCI-H226 cells after 48 hrs by SRB staining method; format: functional; conditions: NCI-H226, 48 h
COLO 205 = assay: Growth inhibition of human COLO205 cells after 48 hrs by SRB staining method; format: functional; conditions: COLO 205, 48 h; for TGI: read-out: pTGI (converted)
SF-539 = assay: Growth inhibition of human SF539 cells after 48 hrs by SRB staining method; format: functional; conditions: SF-539, 48 h; for TGI: read-out: pTGI (converted)
SNB-19 = assay: Growth inhibition of human SNB19 cells after 48 hrs by SRB staining method; format: functional; conditions: SNB-19, 48 h; for TGI: read-out: pTGI (converted)
M14 = assay: Growth inhibition of human M14 cells after 48 hrs by SRB staining method; format: functional; conditions: M14, 48 h; for TGI: read-out: pTGI (converted)
UACC-257 = assay: Growth inhibition of human UACC257 cells after 48 hrs by SRB staining method; format: functional; conditions: UACC-257, 48 h; for TGI: read-out: pTGI (converted)
UACC-62 = assay: Growth inhibition of human UACC62 cells after 48 hrs by SRB staining method; format: functional; conditions: UACC-62, 48 h; for TGI: read-out: pTGI (converted)
IGROV-1 = assay: Growth inhibition of human IGROV1 cells after 48 hrs by SRB staining method; format: functional; conditions: IGROV-1, 48 h; for TGI: read-out: pTGI (converted)
CAKI-1 = assay: Growth inhibition of human CAKI1 cells after 48 hrs by SRB staining method; format: functional; conditions: CAKI-1, 48 h; for CC50: read-out: pLC50 (the source's name) (converted); for TGI: read-out: pTGI (converted)
RXF 393 = assay: Growth inhibition of human RXF393 cells after 48 hrs by SRB staining method; format: functional; conditions: RXF 393, 48 h; for CC50: read-out: pLC50 (the source's name) (converted); for TGI: read-out: pTGI (converted)
TK-10 = assay: Growth inhibition of human TK10 cells after 48 hrs by SRB staining method; format: functional; conditions: TK-10, 48 h; for CC50: read-out: pLC50 (the source's name) (converted); for TGI: read-out: pTGI (converted)
DU-145 = assay: Growth inhibition of human DU145 cells after 48 hrs by SRB staining method; format: functional; conditions: DU-145, 48 h; for CC50: read-out: pLC50 (the source's name) (converted); for TGI: read-out: pTGI (converted)
NCI/ADR-RES = assay: Growth inhibition of human NCI/ADR-RES cells after 48 hrs by SRB staining method; format: functional; conditions: for CC50: read-out: pLC50 (the source's name) (converted); for TGI: read-out: pTGI (converted)
[1] = Growth inhibition of human HS 578T cells after 48 hrs by SRB staining method; format: functional; conditions: for CC50: read-out: pLC50 (the source's name) (converted); for TGI: read-out: pTGI (converted)
MDA-MB-435 = assay: Growth inhibition of human MDA-MB-435 cells after 48 hrs by SRB staining method; format: functional; conditions: MDA-MB-435, 48 h; for CC50: read-out: pLC50 (the source's name) (converted); for TGI: read-out: pTGI (converted)
T47D = assay: Growth inhibition of human T47D cells after 48 hrs by SRB staining method; format: functional; conditions: for CC50: read-out: pLC50 (the source's name) (converted); for TGI: read-out: pTGI (converted)
[2] = target: T1, Dihydrofolate reductase (Homo sapiens) (UniProt P00374); assay: Inhibition of human dihydrofolate reductase at 10 uM
T1 sequence (whole entry): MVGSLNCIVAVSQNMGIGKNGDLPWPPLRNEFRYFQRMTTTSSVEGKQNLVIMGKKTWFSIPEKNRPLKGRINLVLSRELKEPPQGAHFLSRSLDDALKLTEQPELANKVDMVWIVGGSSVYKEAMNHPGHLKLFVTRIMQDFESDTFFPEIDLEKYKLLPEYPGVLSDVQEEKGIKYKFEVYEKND

SF-268 = assay: Growth inhibition of human SF268 cells after 48 hrs by SRB staining method; format: functional; conditions: SF-268, 48 h; for CC50: read-out: pLC50 (the source's name) (converted); for TGI: read-out: pTGI (converted)
CCRF-CEM = assay: Growth inhibition of human CCRF-CEM cells after 48 hrs by SRB staining method; format: functional; conditions: for CC50: read-out: pLC50 (the source's name) (converted)
HL-60 = assay: Growth inhibition of human HL60 cells after 48 hrs by SRB staining method; format: functional; conditions: HL-60, 48 h; for CC50: read-out: pLC50 (the source's name) (converted); for TGI: read-out: pTGI (converted)
K562 = assay: Growth inhibition of human K562 cells after 48 hrs by SRB staining method; format: functional; conditions: K562, 48 h; for CC50: read-out: pLC50 (the source's name) (converted); for TGI: read-out: pTGI (converted)
MOLT-4 = assay: Growth inhibition of human MOLT4 cells after 48 hrs by SRB staining method; format: functional; conditions: MOLT-4, 48 h; for CC50: read-out: pLC50 (the source's name) (converted); for TGI: read-out: pTGI (converted)
Thymidylate synthase [3] = target: T2, Thymidylate synthase (Lactobacillus casei, UniProt P00469)
T2 sequence (P00469 whole entry): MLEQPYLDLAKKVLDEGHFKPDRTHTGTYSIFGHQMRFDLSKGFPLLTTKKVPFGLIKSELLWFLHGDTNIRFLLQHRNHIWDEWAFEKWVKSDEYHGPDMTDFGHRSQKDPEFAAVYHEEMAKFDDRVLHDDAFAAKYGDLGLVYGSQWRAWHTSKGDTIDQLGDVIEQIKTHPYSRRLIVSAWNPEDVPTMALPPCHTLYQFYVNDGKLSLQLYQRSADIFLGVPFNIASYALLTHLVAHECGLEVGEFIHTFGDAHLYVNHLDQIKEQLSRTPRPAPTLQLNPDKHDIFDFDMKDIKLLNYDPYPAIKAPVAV
Description: Inhibition of Lactobacillus casei thymidylate synthase

Thymidylate synthase [4] = target: Thymidylate synthase (Homo sapiens, UniProt P04818)
Description: Inhibition of human thymidylate synthase

HT-29 = assay: Growth inhibition of human HT29 cells after 48 hrs by SRB staining method; format: functional; conditions: HT-29, 48 h
ACHN = assay: Growth inhibition of human ACHN cells after 48 hrs by SRB staining method; format: functional
Dihydrofolate reductase = target: T3, Dihydrofolate reductase (Homo sapiens, UniProt P00374); assay: Inhibition of human dihydrofolate reductase
T3 sequence (P00374 whole entry): T1 sequence (whole entry)

MDA-N = assay: Growth inhibition of human MDA-N cells after 48 hrs by SRB staining method; format: functional
[5] = read-out: pLC50 (the source's name) (converted)

Thymidylate synthase (Homo sapiens, UniProt P04818), sequence (P04818 whole entry): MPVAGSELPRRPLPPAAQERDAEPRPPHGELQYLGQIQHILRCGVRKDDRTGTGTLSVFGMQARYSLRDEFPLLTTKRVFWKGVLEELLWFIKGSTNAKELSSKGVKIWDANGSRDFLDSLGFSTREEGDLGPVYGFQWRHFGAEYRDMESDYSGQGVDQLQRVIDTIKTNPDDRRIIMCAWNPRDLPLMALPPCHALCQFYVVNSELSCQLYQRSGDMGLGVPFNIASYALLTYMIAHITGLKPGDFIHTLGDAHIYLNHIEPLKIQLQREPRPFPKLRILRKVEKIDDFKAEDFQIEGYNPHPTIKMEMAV

Compound: Nc1cc(N)c2nc(-c3ccccc3)c(Nc3ccc(Cl)c(Cl)c3)nc2c1
- GI50 (NCI-H226): 17.4 µM
- LC50 (NCI-H226): 81.3 µM
- TGI (NCI-H226; read-out: pTGI (converted)): 38 µM
- GI50 (COLO 205): 11.7 µM
- LC50 (COLO 205): 85.1 µM
- TGI (COLO 205): 31.6 µM
- GI50 (SF-539): 17 µM
- LC50 (SF-539): 72.4 µM
- TGI (SF-539): 35.5 µM
- GI50 (SNB-19): 12.9 µM
- LC50 (SNB-19): 70.8 µM
- TGI (SNB-19): 30.2 µM
- GI50 (M14): 14.8 µM
- LC50 (M14): > 100 µM
- TGI (M14): 60.3 µM
- GI50 (UACC-257): 11.5 µM
- LC50 (UACC-257): 69.2 µM
- TGI (UACC-257): 28.2 µM
- GI50 (UACC-62): 13.2 µM
- LC50 (UACC-62): 67.6 µM
- TGI (UACC-62): 30.2 µM
- GI50 (IGROV-1): 4.9 µM
- LC50 (IGROV-1): 66.1 µM
- TGI (IGROV-1): 20.9 µM
- GI50 (CAKI-1): 13.5 µM
- CC50 (CAKI-1): 64.6 µM
- TGI (CAKI-1): 29.5 µM
- GI50 (RXF 393): 6.17 µM
- CC50 (RXF 393): > 100 µM
- TGI (RXF 393): 30.9 µM
- GI50 (TK-10): 13.8 µM
- CC50 (TK-10): 66.1 µM
- TGI (TK-10): 30.2 µM
- GI50 (DU-145): 16.6 µM
- CC50 (DU-145): 63.1 µM
- TGI (DU-145): 32.4 µM
- GI50 (NCI/ADR-RES): 15.5 µM
- CC50 (NCI/ADR-RES): > 100 µM
- TGI (NCI/ADR-RES): 55 µM
- GI50 [1]: 19.1 µM
- CC50 [1]: > 100 µM
- TGI [1]: 51.3 µM
- GI50 (MDA-MB-435): 2.14 µM
- CC50 (MDA-MB-435): 9.77 µM
- TGI (MDA-MB-435): 45.7 µM
- GI50 (T47D): 11.5 µM
- CC50 (T47D): 83.2 µM
- TGI (T47D): 30.9 µM
- Activity [2]: inactive
- GI50 (SF-268): 12 µM
- CC50 (SF-268): 67.6 µM
- TGI (SF-268): 28.8 µM
- GI50 (CCRF-CEM): 1.29 µM
- CC50 (CCRF-CEM): > 100 µM
- GI50 (HL-60): 2.57 µM
- CC50 (HL-60): > 100 µM
- TGI (HL-60): 72.4 µM
- GI50 (K562): 3.55 µM
- CC50 (K562): > 100 µM
- TGI (K562): > 100 µM
- GI50 (MOLT-4): 4.07 µM
- CC50 (MOLT-4): > 100 µM
- TGI (MOLT-4): > 100 µM
- Ki (Thymidylate synthase [3]): 1 µM
- Ki (Thymidylate synthase [4]): 0.9 µM

Compound: COc1cc(Nc2nc3cc(N)cc(N)c3nc2-c2ccccc2)cc(OC)c1OC
- GI50 (COLO 205): 14.1 µM
- LC50 (COLO 205): 52.5 µM
- TGI (COLO 205): 26.9 µM
- GI50 (HT-29): 33.1 µM
- LC50 (HT-29): 74.1 µM
- TGI (HT-29; read-out: pTGI (converted)): 34.7 µM
- GI50 (SF-539): 14.8 µM
- LC50 (SF-539): 56.2 µM
- TGI (SF-539): 28.8 µM
- GI50 (SNB-19): 33.1 µM
- LC50 (SNB-19): > 100 µM
- TGI (SNB-19): > 100 µM
- GI50 (M14): 19.5 µM
- LC50 (M14): > 100 µM
- TGI (M14): 44.7 µM
- GI50 (UACC-257): 29.5 µM
- LC50 (UACC-257): > 100 µM
- TGI (UACC-257): > 100 µM
- GI50 (UACC-62): 13.5 µM
- LC50 (UACC-62): 74.1 µM
- TGI (UACC-62): 31.6 µM
- GI50 (IGROV-1): 15.8 µM
- LC50 (IGROV-1): > 100 µM
- TGI (IGROV-1): 57.5 µM
- GI50 (ACHN): 16.6 µM
- CC50 (ACHN; [5]): > 100 µM
- TGI (ACHN; read-out: pTGI (converted)): 42.7 µM
- GI50 (CAKI-1): 15.5 µM
- CC50 (CAKI-1): > 100 µM
- TGI (CAKI-1): 49 µM
- GI50 (RXF 393): 14.5 µM
- CC50 (RXF 393): 83.2 µM
- TGI (RXF 393): 34.7 µM
- GI50 (TK-10): 24 µM
- CC50 (TK-10): > 100 µM
- TGI (TK-10): 66.1 µM
- GI50 (DU-145): 21.9 µM
- CC50 (DU-145): > 100 µM
- TGI (DU-145): 74.1 µM
- GI50 (NCI/ADR-RES): 14.5 µM
- CC50 (NCI/ADR-RES): > 100 µM
- TGI (NCI/ADR-RES): 43.7 µM
- GI50 [1]: 15.1 µM
- CC50 [1]: > 100 µM
- TGI [1]: 77.6 µM
- GI50 (MDA-MB-435): 7.41 µM
- CC50 (MDA-MB-435): 69.2 µM
- TGI (MDA-MB-435): 24.5 µM
- GI50 (T47D): 6.03 µM
- CC50 (T47D): 95.5 µM
- TGI (T47D): 31.6 µM
- Ki (Dihydrofolate reductase): 0.1 µM
- GI50 (MDA-N): 10.5 µM
- CC50 (MDA-N; [5]): 93.3 µM
- TGI (MDA-N; read-out: pTGI (converted)): 31.6 µM
- GI50 (SF-268): 18.2 µM
- CC50 (SF-268): > 100 µM
- TGI (SF-268): 60.3 µM
- GI50 (CCRF-CEM): 4.37 µM
- CC50 (CCRF-CEM): > 100 µM
- TGI (CCRF-CEM; read-out: pTGI (converted)): 41.7 µM
- GI50 (HL-60): 6.61 µM
- CC50 (HL-60): 64.6 µM
- TGI (HL-60): 23.4 µM
- GI50 (K562): 12.6 µM
- CC50 (K562): > 100 µM
- TGI (K562): 39.8 µM
- GI50 (MOLT-4): 2.57 µM
- CC50 (MOLT-4): 56.2 µM
- TGI (MOLT-4): 18.2 µM
- Ki (Thymidylate synthase [4]): 51 µM
